Literature values in patent US20010033859A1, “Transdermal therapeutic system for delivery of dofetilide” (priority 2000, published 2001).

Conditions: stated as a property of the drug substance; solvent system not given

partition coefficient: about 1
SMILES: CN(CCOc1ccc(NS(C)(=O)=O)cc1)CCc1ccc(NS(C)(=O)=O)cc1 [dofetilide, N-[4-[2-[methyl[2-[4-[(methylsulfonyl)amino]phenoxy]ethyl]amino]ethyl]phenyl]-methanesulfonamide]
